Test [1] relates to type I collagen deposition in primary lung fibroblasts derived from human tissue. The experiment in a line: Type I collagen deposition (scar-in-a-jar) high content screening assay. The settings on record: Primary lung fibroblast, 72 h, human pulmonary fibroblasts, 96-well, TGFβ-1 1 ng/ml 72 h, collagen intensity, read-out: mean pIC50, type I collagen deposition (scar-in-a-jar) (converted). It counts as cell-based. As for the experimental part:
Cellular type I collagen deposition was measured by adapting a published method; scar-in-a-jar (Chen et al., 2009) to primary lung fibroblasts derived from human tissue and combining with high content analysis to permit fluorescent quantification of collagen deposited in the extracellular matrix (ECM). The human biological samples were sourced ethically and their research use was in accord with the terms of the informed consents under an IRB/EC approved protocol. Human pulmonary fibroblasts were maintained in DMEM media (Gibco, Catalogue No 21969) supplemented with 4 mM L-glutamine (Gibco Catalogue No 25030-024) and 100/heat inactivated FBS (Gibco #10270-106, Lot #42F6663K) at 37° C. in 10%/CO2. Cells were harvested and seeded at 10,000 cells per well (85 μL/well) into black walled 96 well imaging plates (BD Falcon, 353219) in assay media (0.4%/heat inactivated FBS, 4 mM L-glutamine) and incubated overnight at 37° C., 10%/CO2.
Test compounds were dissolved in 1000/DMSO to give 10 mM stocks which were further diluted (serial 1:3) to generate 10 point concentration response curves. Assay media was supplemented with 112.5 mg/ml Ficoll 70 (Sigma, Catalogue No F2878), 75 mg/ml Ficoll 400 (Sigma, Catalogue No F4375) and 50 µg/ml ascorbic acid (Sigma, Catalogue No A8960). 3 μL compound were added to 297 μL assay media (10× compound final concentration in 1% DMSO).
Diluted compounds (15 μL) were transferred to plates containing cells and incubated for 3 h at 37° C. in 10% CO2. Transforming growth factor (TGF)β-1 (R&D Systems, Catalogue No 100-B/CF) was reconstituted according to manufacturer's instructions to give 10 µg/mL (stock) and further diluted (1 in 3333) in assay media containing Ficoll and ascorbic acid. 50 μL TGFβ-1 was added to cell plates (1 ng/ml final) and cells incubated for 72 h at 37° C. in 10% CO2.
Media was removed and cells were fixed with 50 µL/well 100% ice-cold methanol (2 min). Methanol was decanted and cells washed with PBS (3×). To permeabilise, cells were incubated with PBS containing 0.1% Triton X 100 for 90 sec, followed by PBS wash (3×). Cells were incubated with mouse anti human type I collagen monoclonal antibody (Sigma, Catalogue No C2456) diluted 1:1000 in PBS overnight at 4° C. Cells were washed with PBS containing 0.05% Tween-20 (3×) and incubated with secondary alexa fluor 488 goat-anti-mouse antibody (Invitrogen, Catalogue No A11001, 1 in 500 in PBS) and Hoechst 33342 (Sigma, Catalogue No H21492), 1 in 10000 in PBS) for 1 h at RT, prior to washing with PBS containing 0.05% Tween (×3) before finally adding 200 µL/well PBS.
Type I collagen immunoreactivity was detected using the Thermofisher CellInsight NXT set to excitation and emission wavelengths for DAPI and FITC with exposure adjusted to appropriate levels. Images were analysed using Cellomics Studio software (Version 6.6.0, build 8153) and computational algorithms to quantify “collagen intensity” and “cell count”.
Data analysis was performed by determining % response values for test compounds relative to the maximum (TGFβ-1 stimulation) fitting a ‘log(inhibitor) vs. response-Variable slope (four parameters)’ curve and recording pIC50 (inverse of Log IC50) values for test compounds.

In test [2] the test system is phosphorylated Akt at serine 473 (pAKTs473) in primary lung fibroblasts derived from explanted tissue. The experiment in a line: Phosphorylated Akt (Ser473) in vitro immunoassay (MSD), fibroblasts from explanted tissue. The note with it: Homo sapiens, Primary lung fibroblast, 96-well, compound 2 h, PDGF-BB 10 ng/ml 15 min, read-out: mean pIC50, pAKTs473 immunoassay (converted). It counts as cell-based. The source says:
Immunoassay using the Meso Scale Discovery (MSD) platform to measure the effect of test compounds on phosphorylated Akt at serine 473 (pAKTs473) in primary lung fibroblasts derived from explanted tissue. The human biological samples were sourced ethically and their research use was in accord with the terms of the informed consents under an IRB/EC approved protocol.
Human lung fibroblasts were routinely maintained in Dulbecco's Modified Eagle Medium (DMEM; Gibco, catalogue no. 21969-035) supplemented with 10% foetal bovine serum (FBS (heat-inactivated); Gibco, catalogue no. 10270-106) and 4 mM L-glutamine (Gibco, catalogue no. 25030024) at 37° C. in 10% CO2.
For the assay, cells were harvested using Trypsin/EDTA (Gibco, catalogue no. 25300-062), resuspended to give 1.2×10^5 cells/ml and 100 ul/well seeded into 96-well plates (Corning, Catalogue No. 3596) in DMEM supplemented with 0.4% FCS and 4 mM L-glutamine and incubated overnight at 37° C. in 10% CO2.
Test compounds were dissolved in 100% DMSO to give 10 mM stock solutions and serially diluted to generate a 10-point concentration response curve. Compounds were further diluted 100-fold into 96-well V-bottom polypropylene plates (Greiner, Catalogue no. 651201) with DMEM supplemented with 0.4% FCS and 4 mM L-glutamine to give 100 µM top compound concentration in 1% DMSO.
Compounds were further diluted 10-fold by transfer to 96-well plates containing cells ([…] top concentration, 0.1% DMSO final) and incubated for 2 h at 37° C. in 10% CO2, prior to stimulation with platelet-derived growth factor (PDGF)-BB (Gibco, Catalogue no. PHG0041) at 10 ng/ml (final) for 15 min at 37° C. in 10% CO2. Cell assay plates were then incubated on ice and treated with lysis buffer (Cell Signalling Technology, Catalogue No. 9803) containing protease and phosphatase inhibitors (Halt, Thermo Scientific, Catalogue No. 78444) for 30 min.
MSD plates (MSD, Phospho(Ser473)/Total Akt Whole Cell Lysate Kit, Catalogue No. K15100D-3) were blocked with 1×blocking buffer as per the manufacturer's instructions at RT with shaking, followed by washing (×3) with Tris-buffered saline containing 0.05% Tween-20 (TBST). Cell lysates (30 ul) were added and MSD plates incubated for 1 h at RT with shaking.
Plates were washed with TBST (×3), prior to addition of SULFO-TAG Anti-Total Akt Antibody as per the manufacturer's instructions and shaken at RT for 1 h. After washing with 1×TBST (×3), read buffer (1×) (MSD, Catalogue No. R92TC-1) was added as per the manufacturer's instructions before detecting electrochemiluminescence (MSD Sector Imager 600).
Data analysis was performed using non-linear regression analysis to determine IC50 values for test compounds. Minimum (no PDGF-BB stimulation) and maximum responses (+PDGF-BB stimulation) were monitored for assay quality control.

The structures appear in SMILES notation.

For the compound `CC[C@H]1COCCN1c1cc(CS(=O)(=O)CC)nc(-c2ccc3[nH]c(CNC)cc3n2)n1` [Example 33, (S)-1-(5-(4-(3-ethylmorpholino)-6-((ethylsulfonyl)methyl)pyrimidin-2-yl)-1H-pyrrolo[3,2-b]pyridin-2-yl)-N-methylmethanamine], the IC50 in test [1] is below 3.98 µM.

Consider `CC[C@H]1COCCN1c1cc(CS(=O)(=O)N(CC)CC)nc(-c2ccc3[nH]c(CNC)cc3n2)n1` [Example 30, (S)—N,N-diethyl-1-(6-(3-ethylmorpholino)-2-(2-((methylamino)methyl)-1H-pyrrolo[3,2-b]pyridin-5-yl)pyrimidin-4-yl)methanesulfonamide], for which the IC50 in test [1] is below 3.98 µM.

Turning to `CCCS(=O)(=O)Cc1cc(N2CCOC[C@@H]2CC)nc(-c2ccc3[nH]c(CNC)cc3n2)n1` [Example 32, (S)-1-(5-(4-(3-ethylmorpholino)-6-((propylsulfonyl)methyl)pyrimidin-2-yl)-1H-pyrrolo[3,2-b]pyridin-2-yl)-N-methylmethanamine], the results for the IC50 in test [1] and in test [2] were below 3.98 µM and below 0.1 µM, respectively.

For the origin of these results see US20220306623A1, “PYRIDYL OR PYRIMIDYL MTOR KINASE INHIBITORS” (GLAXOSMITHKLINE INTELLECTUAL PROPERTY DEVELOPMENT LIMITED, priority 2019, published 2022).
